Reference: US12391679B2, “Benzamide-substituted bicyclic imidazo- and pyrazolo-fused -pyridine, -pyrimide, and -pyridazine compounds for treatment of inflammatory diseases” (ONCO3R Therapeutics BV, priority 2019, dated 2025)

What was measured:
Format in all cases: biochemical
[1] = target: T1, SIK2 (Homo sapiens, UniProt Q9H0K1); assay: ADP-Glo kinase assay, SIK2
T1 construct: purchased ThermoFisher Scientific PV4792
Description: (§1) The ADP-Glo™ kinase assay is a luminescent technology assay which measures the ADP formed from a kinase reaction. […] In a second step the kinase reactions are terminated and all the remaining ATP is depleted. In a final step the ADP is converted into ATP and this newly synthesized ATP is measured by using a luciferase/luciferin reaction. The generated light is measured using an Envision plate reader, wherein the luminescent signal obtained positively correlates with the kinase activity.
(§2) 1% DMSO and 10 μM staurosporine final concentrations are used as negative and positive controls.
(§3) 2 μL enzyme-substrate mixture is added to the assay plates.
(§4) The reaction is started by adding 2 μL diluted ATP on the assay plates. Plates are centrifuged for a few seconds at 1000 rpm and gently shaken for […] followed by an incubation at RT for 120 min.
(§5) The reactions are stopped and the unconsumed ATP is depleted by adding 5 μL ADP-Glo Reagent (Promega, Cat #V9120) to the reaction. The plates are centrifuged for a few seconds at 1000 rpm and incubated at RT for 40 min (ATP depletion).
(§6) The ADP is converted to ATP and luciferase and luciferin is introduced to detect ATP by adding 10 μL Kinase Detection Reagent (Promega, Cat #V913B+V914r) to the reaction. The plates are centrifuged for a few seconds at 1000 rpm and incubated at RT for 30 min (ADP detection).
(§7) Luminescence is measured on an Envision plate reader (PerkinElmer Inc.).

[2] = target: T2, SIK1 (Homo sapiens, UniProt P57059); assay: ADP-Glo kinase assay, SIK1
T2 construct: purchased Carna Biosciences 02-131
Description: as §1, §2, §3, §4, §5, §6, §7

[3] = target: T3, SIK3 (Homo sapiens, UniProt Q9Y2K2); assay: ADP-Glo kinase assay, SIK3
T3 construct: purchased SignalChem S12-11G-100
Description: as §1, §2, §3, §4, §5, §6, §7

T3 sequence (Q9Y2K2 59-365 limits assumed): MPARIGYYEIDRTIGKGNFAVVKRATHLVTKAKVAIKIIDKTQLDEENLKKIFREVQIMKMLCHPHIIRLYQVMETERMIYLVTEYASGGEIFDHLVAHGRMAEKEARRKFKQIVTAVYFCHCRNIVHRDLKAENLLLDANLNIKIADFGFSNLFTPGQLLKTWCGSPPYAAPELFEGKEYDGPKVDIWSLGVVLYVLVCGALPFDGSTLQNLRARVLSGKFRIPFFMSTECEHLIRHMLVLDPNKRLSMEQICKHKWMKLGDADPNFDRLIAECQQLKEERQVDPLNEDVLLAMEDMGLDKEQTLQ
T1 sequence (Q9H0K1 whole entry): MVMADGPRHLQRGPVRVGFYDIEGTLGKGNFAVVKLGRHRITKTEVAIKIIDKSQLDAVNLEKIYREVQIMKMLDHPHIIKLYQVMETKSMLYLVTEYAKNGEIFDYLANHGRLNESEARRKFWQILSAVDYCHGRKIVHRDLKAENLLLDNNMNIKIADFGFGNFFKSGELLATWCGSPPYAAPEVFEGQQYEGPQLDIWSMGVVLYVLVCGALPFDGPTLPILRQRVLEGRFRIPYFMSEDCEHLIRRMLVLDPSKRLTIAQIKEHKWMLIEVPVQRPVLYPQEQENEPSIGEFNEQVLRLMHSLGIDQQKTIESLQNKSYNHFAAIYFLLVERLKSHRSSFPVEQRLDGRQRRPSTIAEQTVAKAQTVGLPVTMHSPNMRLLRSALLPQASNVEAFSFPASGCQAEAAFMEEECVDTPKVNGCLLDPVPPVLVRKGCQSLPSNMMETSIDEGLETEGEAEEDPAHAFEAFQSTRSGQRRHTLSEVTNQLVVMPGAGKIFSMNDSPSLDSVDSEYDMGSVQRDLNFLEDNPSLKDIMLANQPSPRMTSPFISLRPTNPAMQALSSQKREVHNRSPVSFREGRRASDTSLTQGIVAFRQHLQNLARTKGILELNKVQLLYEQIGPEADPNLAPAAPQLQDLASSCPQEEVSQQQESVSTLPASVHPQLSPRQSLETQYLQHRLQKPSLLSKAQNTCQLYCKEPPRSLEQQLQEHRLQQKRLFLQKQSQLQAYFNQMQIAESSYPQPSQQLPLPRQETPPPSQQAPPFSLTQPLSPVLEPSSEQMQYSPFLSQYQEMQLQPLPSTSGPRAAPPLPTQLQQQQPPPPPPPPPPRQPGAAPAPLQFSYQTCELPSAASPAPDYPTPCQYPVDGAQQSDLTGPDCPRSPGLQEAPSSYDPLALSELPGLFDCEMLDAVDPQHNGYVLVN
T2 sequence (P57059 whole entry): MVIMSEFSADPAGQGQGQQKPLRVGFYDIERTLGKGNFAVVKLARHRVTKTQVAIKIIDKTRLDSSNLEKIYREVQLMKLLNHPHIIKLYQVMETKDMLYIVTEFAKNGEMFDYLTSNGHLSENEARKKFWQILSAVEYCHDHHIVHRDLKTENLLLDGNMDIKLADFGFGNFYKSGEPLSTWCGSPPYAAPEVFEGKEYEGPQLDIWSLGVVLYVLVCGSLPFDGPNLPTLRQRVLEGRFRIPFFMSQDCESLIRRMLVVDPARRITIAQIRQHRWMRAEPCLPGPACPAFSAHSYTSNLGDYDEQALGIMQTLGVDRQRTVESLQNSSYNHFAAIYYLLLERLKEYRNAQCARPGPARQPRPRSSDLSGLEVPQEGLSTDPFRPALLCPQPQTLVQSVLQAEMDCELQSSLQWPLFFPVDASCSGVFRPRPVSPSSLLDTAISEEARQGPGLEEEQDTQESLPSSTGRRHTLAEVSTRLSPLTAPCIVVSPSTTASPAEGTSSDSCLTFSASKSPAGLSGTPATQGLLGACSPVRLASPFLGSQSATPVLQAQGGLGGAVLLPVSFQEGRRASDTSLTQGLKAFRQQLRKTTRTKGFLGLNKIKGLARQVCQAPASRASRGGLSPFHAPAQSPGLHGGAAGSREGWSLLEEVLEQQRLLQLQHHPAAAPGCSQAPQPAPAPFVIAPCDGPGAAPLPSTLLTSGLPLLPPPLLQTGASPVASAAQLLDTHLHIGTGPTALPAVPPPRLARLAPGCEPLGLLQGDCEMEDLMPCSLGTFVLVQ

| Structure (SMILES) | IC50 [1] [nM] | IC50 [2] [nM] | IC50 [3] [nM] |
| --- | --- | --- | --- |
| COc1cc(-c2cnc3cc(C(C)(C)C#N)ccn23)cc(OC(F)F)c1C(=O)NCCCO [Cpd 44, 4-[7-(1-cyano-1-methyl-ethyl)imidazo[1,2-a]pyridin-3-yl]-2-(difluoromethoxy)-N-(3-hydroxypropyl)-6-methoxy-benzamide] | > 500 | > 500 | 10 to 100 |
| COCCCNC(=O)c1c(OC)cc(-c2cnc3cc(C(C)(C)C#N)ccn23)cc1OC(F)F [Cpd 45, 4-[7-(1-cyano-1-methyl-ethyl)imidazo[1,2-a]pyridin-3-yl]-2-(difluoromethoxy)-6-methoxy-N-(3-methoxypropyl)benzamide] | > 500 | > 500 | 100 to 500 |
| COc1cc(-c2cnc3cc(C(C)(C)C#N)ccn23)cc(OC(F)F)c1C(=O)N1CCC(OC)CC1 [Cpd 46, 2-[3-[3-(difluoromethoxy)-5-methoxy-4-(4-methoxypiperidine-1-carbonyl)phenyl]imidazo[1,2-a]pyridin-7-yl]-2-methyl-propanenitrile] | > 500 | > 500 | > 500 |
| COc1cc(-c2cnc3cc(C(C)(C)C#N)ccn23)cc(OC(F)F)c1C(=O)N1CCC(F)(F)C1 [Cpd 47, 2-[3-[3-(difluoromethoxy)-4-(3,3-difluoropyrrolidine-1-carbonyl)-5-methoxy-phenyl]imidazo[1,2-a]pyridin-7-yl]-2-methyl-propanenitrile] | > 500 | > 500 | 10 to 100 |
| COc1cc(-c2cnc3cc(C(C)(C)C#N)ccn23)cc(OC(F)F)c1C(=O)N1CCOCC1 [Cpd 48, 2-[3-[3-(difluoromethoxy)-5-methoxy-4-(morpholine-4-carbonyl)phenyl]imidazo[1,2-a]pyridin-7-yl]-2-methyl-propanenitrile] | > 500 | > 500 | > 500 |
| COc1cc(-c2cnc3cc(C(C)(C)C#N)ccn23)cc(OC(F)F)c1C(=O)N1CCN(C)CC1 [Cpd 49, 2-[3-[3-(difluoromethoxy)-5-methoxy-4-(4-methylpiperazine-1-carbonyl)phenyl]imidazo[1,2-a]pyridin-7-yl]-2-methyl-propanenitrile] | > 500 | > 500 | > 500 |
| COc1cc(-c2cnc3cc(C(C)(C)C#N)ccn23)cc(OC(F)F)c1C(=O)N1CC(O)C1 [Cpd 50, 2-[3-[3-(difluoromethoxy)-4-(3-hydroxyazetidine-1-carbonyl)-5-methoxy-phenyl]imidazo[1,2-a]pyridin-7-yl]-2-methyl-propanenitrile] | > 500 | > 500 | 100 to 500 |
| COc1cc(-c2cnc3cc(C(C)(C)C#N)ccn23)cc(OC(F)F)c1C(=O)N1CC2(COC2)C1 [Cpd 51, 2-[3-[3-(difluoromethoxy)-5-methoxy-4-(2-oxa-6-azaspiro[3.3]heptane-6-carbonyl)phenyl]imidazo[1,2-a]pyridin-7-yl]-2-methyl-propanenitrile] | > 500 | > 500 | 10 to 100 |
| COc1cc(-c2cnc3cc(C(C)(C)C#N)ccn23)cc(OC(F)F)c1C(=O)NCc1ccn(C)n1 [Cpd 52, 4-[7-(1-cyano-1-methyl-ethyl)imidazo[1,2-a]pyridin-3-yl]-2-(difluoromethoxy)-6-methoxy-N-[(1-methylpyrazol-3-yl)methyl]benzamide] | > 500 | > 500 | > 500 |
| COc1cc(-c2cnc3cc(C(C)O)ccn23)cc(OC)c1C(=O)NCC(F)(F)F (stereo not drawn) [Cpd 54, 4-[7-(1-hydroxyethyl)imidazo[1,2-a]pyridin-3-yl]-2,6-dimethoxy-N-(2,2,2-trifluoroethyl)benzamide] | > 500 | > 500 | 10 to 100 |
| COc1cc(-c2cnc3cc(C(C)(C)N)ccn23)cc(OC)c1C(=O)NCC(F)(F)F [Cpd 55, 4-[7-(1-amino-1-methyl-ethyl)imidazo[1,2-a]pyridin-3-yl]-2,6-dimethoxy-N-(2,2,2-trifluoroethyl)benzamide] | > 500 | > 500 | 10 to 100 |
| COc1cc(-c2cnc3cc(C(C)(C)C(C)=O)ccn23)cc(OC)c1C(=O)NCC(F)(F)F [Cpd 56, 4-[7-(1,1-dimethyl-2-oxo-propyl)imidazo[1,2-a]pyridin-3-yl]-2,6-dimethoxy-N-(2,2,2-trifluoroethyl)benzamide] | > 500 | > 500 | 10 to 100 |
| COc1cc(-c2cnc3cc(C(C)(C)O)ccn23)cc(OC)c1C(=O)NCC(F)(F)F [Cpd 57, 4-[7-(1-hydroxy-1-methyl-ethyl)imidazo[1,2-a]pyridin-3-yl]-2,6-dimethoxy-N-(2,2,2-trifluoroethyl)benzamide] | > 500 | > 500 | 10 to 100 |
| COc1cc(-c2cnc3cc(C(C)(C)c4noc(C)n4)ccn23)cc(OC(F)F)c1C(=O)NC1CC1 [Cpd 61, N-cyclopropyl-2-(difluoromethoxy)-6-methoxy-4-[7-[1-methyl-1-(5-methyl-1,2,4-oxadiazol-3-yl)ethyl]imidazo[1,2-a]pyridin-3-yl]benzamide] | > 500 | > 500 | 10 to 100 |

Second part, the compound after the results:

| IC50 [1] [nM] | IC50 [2] [nM] | IC50 [3] [nM] | Structure (SMILES) |
| --- | --- | --- | --- |
| > 500 | > 500 | 10 to 100 | C=CCC(C#N)(CC=C)c1ccn2c(-c3cc(OC)c(C(=O)NC4CC4)c(OC(F)F)c3)cnc2c1 [Cpd 36, 4-[7-(1-allyl-1-cyano-but-3-enyl)imidazo[1,2-a]pyridin-3-yl]-N-cyclopropyl-2-(difluoromethoxy)-6-methoxy-benzamide] |
| 100 to 500 | > 500 | 10 to 100 | COc1cc(-c2cnc3cc(C4CCOCC4)ccn23)cc(OC)c1C(=O)NCC(F)(F)F [Cpd 37, 2,6-dimethoxy-4-(7-tetrahydropyran-4-ylimidazo[1,2-a]pyridin-3-yl)-N-(2,2,2-trifluoroethyl)benzamide] |
| > 500 | > 500 | > 500 | COc1cc(-c2cnc3cc(C(C)(C)C#N)ccn23)cc(OC(F)F)c1C(=O)N1CCS(=O)(=O)CC1 [Cpd 38, 2-[3-[3-(difluoromethoxy)-4-(1,1-dioxo-1,4-thiazinane-4-carbonyl)-5-methoxy-phenyl]imidazo[1,2-a]pyridin-7-yl]-2-methyl-propanenitrile] |
| > 500 | > 500 | > 500 | CCN(C)C(=O)c1c(OC)cc(-c2cnc3cc(C(C)(C)C#N)ccn23)cc1OC(F)F [Cpd 40, 4-[7-(1-cyano-1-methyl-ethyl)imidazo[1,2-a]pyridin-3-yl]-2-(difluoromethoxy)-N-ethyl-6-methoxy-N-methyl-benzamide] |
| > 500 | > 500 | > 500 | COc1cc(-c2cnc3cc(C(C)(C)C#N)ccn23)cc(OC(F)F)c1C(=O)N1CCC(O)CC1 [Cpd 41, 2-[3-[3-(difluoromethoxy)-4-(4-hydroxypiperidine-1-carbonyl)-5-methoxy-phenyl]imidazo[1,2-a]pyridin-7-yl]-2-methyl-propanenitrile] |
| > 500 | > 500 | 100 to 500 | COc1cc(-c2cnc3cc(C(C)(C)C#N)ccn23)cc(OC(F)F)c1C(=O)NCCN1CCOCC1 [Cpd 42, 4-[7-(1-cyano-1-methyl-ethyl)imidazo[1,2-a]pyridin-3-yl]-2-(difluoromethoxy)-6-methoxy-N-(2-morpholinoethyl)benzamide] |
| > 500 | > 500 | 10 to 100 | COc1cc(-c2cnc3cc(C(C)(C)C#N)ccn23)cc(OC(F)F)c1C(=O)NC1COC1 [Cpd 43, 4-[7-(1-cyano-1-methyl-ethyl)imidazo[1,2-a]pyridin-3-yl]-2-(difluoromethoxy)-6-methoxy-N-(oxetan-3-yl)benzamide] |
| 100 to 500 | 100 to 500 | 10 to 100 | COc1cc(-c2cnc3cc(C4CN(C(=O)OC(C)(C)C)C4)ccn23)cc(OC)c1C(=O)NCC(F)(F)F [Cpd 58, tert-butyl 3-[3-[3,5-dimethoxy-4-(2,2,2-trifluoroethylcarbamoyl)phenyl]imidazo[1,2-a]pyridin-7-yl]azetidine-1-carboxylate] |
| 10 to 100 | 10 to 100 | 0.01 to 10 | COc1cc(-c2cnc3cc(C4CN(C(=O)OC(C)(C)C)C4)ccn23)cc(OC(F)F)c1C(=O)NC1CC1 [Cpd 59, tert-butyl 3-[3-[4-(cyclopropylcarbamoyl)-3-(difluoromethoxy)-5-methoxy-phenyl]imidazo[1,2-a]pyridin-7-yl]azetidine-1-carboxylate] |
| 10 to 100 | 100 to 500 | 0.01 to 10 | COc1cc(-c2cnc3cc(C4CCN(C(=O)OC(C)(C)C)CC4)ccn23)cc(OC(F)F)c1C(=O)NC1CC1 [Cpd 60, tert-butyl 4-[3-[4-(cyclopropylcarbamoyl)-3-(difluoromethoxy)-5-methoxy-phenyl]imidazo[1,2-a]pyridin-7-yl]piperidine-1-carboxylate] |
| 10 to 100 | > 500 | 0.01 to 10 | COc1cc(-c2cnc3cc(C4CCCNC4)ccn23)cc(OC(F)F)c1C(=O)NC1CC1 (stereo not drawn) [Cpd 65, N-cyclopropyl-2-(difluoromethoxy)-6-methoxy-4-[7-(3-piperidyl)imidazo[1,2-a]pyridin-3-yl]benzamide] |
